Results: patent publication US20220033430A1, “ORALLY ACTIVE PRODRUG OF GEMCITABINE” (TNT Medical Corporation, priority 2018, published 2022)
Entries after “also recorded” stand apart in the source; their conditions may differ.

Assays:
[1] = system: ovarian cancer A2780 xenograft model; assay: In vivo xenograft study, ovarian cancer A2780 model; parameters: species or system mice; conditions: for Tumor volume: A2780 xenograft
Excerpt: Compound of Example 2 was selected for in vivo studies in the ovarian cancer A2780 xenograft model. Typically, athymic nude mice (CD-1 nu/nu) or SCID mice are obtained at age 6-8 weeks from vendors and acclimated for a minimum 7-day period. The cancer cells are then implanted into the nude mice. Depending on the specific tumor type, tumors are typically detectable about two weeks following implantation. When tumor sizes reach ˜100-200 mm^3, the animals with appreciable tumor size and shape are randomly assigned into groups of 8 mice each, including one vehicle control group and treatment groups. Dosing varies depending on the purpose and length of each study, which typically proceeds for about 3-4 weeks. Tumor sizes and body weight are typically measured three times per week. In addition to the determination of tumor size changes, the last tumor measurement is used to generate the tumor size change ratio (T/C value), a standard metric developed by the National Cancer Institute for xenograft tumor evaluation. In most cases, % T/C values are calculated using the following formula: % T/C=100×ΔT/ΔC if ΔT>0. When tumor regression occurred (ΔT<0), however, the following formula is used: % T/T0=100×ΔT/T0. Values of <42% are considered significant.
Ovarian Cancer is the 5th most common cancer in women: ˜ 22,280 new cases and 14,240 death in 2016 in US. In China, Ovarian Cancer has more than 100,000 new cases each year. Gemcitabine (intravenous dosing) is the 2nd line SOC of Ovarian Cancer.

[2] = Mice PK study: plasma active metabolite Gemcitabine after dosing of prodrug; type: in vivo, male CD1 mouse; conditions: single dose 10, 150, 300 mg/kg
Procedure: The pharmacokinetics of compounds were evaluated in male CD1 mouse via Intravenous and Oral Administration. The iv dose was administered as a slow bolus in the Jugular vein, and oral doses were administered by gavage. The formulation is 2.5% DMSO, 10% EtOH, 20% Cremphor EL, 67.5% D5W. The PK time point 5 min, 15, 30 min, 1, 2, 4, 6, 8 hours post dose. Approximately 0.03 mL blood will be collected at each time point. Keep blood at room temperature and collect plasma within 15 min by centrifugation at 4000 g for 5 minutes in a 4° C. centrifuge. Plasma samples will be stored in polypropylene tubes. The plasma samples will be stored in a freezer at −75±15° C. prior to analysis. Concentrations of compounds and the active metaboliste Gemcitabine in the plasma samples will be analyzed using a LC-MS/MS method. WinNonlin (Phoenix, version 6.1) or other similar software will be used for pharmacokinetic calculations. The following pharmacokinetic parameters will be calculated, whenever possible from the plasma concentration versus time data: IV administration: C0, CL, Vd, T1/2, AUCinf, AUClast, MRT, Number of Points for Regression; PO administration: Cmax, Tmax, T1/2, AUCinf, AUClast, F %, Number of Points for Regression. The pharmacokinetic data will be described using descriptive statistics such as mean, standard deviation. […]

[3] = Water solubility observed during formulation for the PK study; type: physicochemical; conditions: compared with LY2334737
[4] = mice, single oral (gavage) dose of 167, 333, or 500 mg/kg; cited from earlier work
[5] = LY2334737 QD, Japanese patients, 2013; cited from earlier work

What does the source list for `CCCC(CCC)C(=O)Nc1ccn([C@@H]2O[C@H](COC(=O)C(C)C)[C@@H](OC(=O)[C@@H](N)C(C)C)C2(F)F)c(=O)n1` [Example 2, (2R,3R,5R)-4,4-difluoro-2-[[(2-methylpropanoyl)oxy]methyl]-5-[2-oxo-4-(2-propylpentanamido)-1,2-dihydropyrimidin-1-yl]oxolan-3-yl (2S)-2-amino-3-methylbutanoate]?
efficacy compared with Gemcitabine (IV dosing) ([1]; A2780 model, Example 2 oral dosing): better efficacy than Gemcitabine (IV dosing); Tumor volume ([1]; 75 mg/kg po q4d × 7): 65 mm^3; PK linearity of active metabolite Gemcitabine [2]: good PK linearity; water solubility [3]: significant higher water solubility than LY2334737; also recorded: excellent water solubility

What does the source list for `Nc1ccn([C@@H]2O[C@H](CO)[C@@H](O)C2(F)F)c(=O)n1` [Gemcitabine]?
Tumor volume ([1]; 120 mg/kg IV qw × 4): 442 mm^3; adverse dose-limiting intestinal lesions [4]: moderate-to-marked loss of mucosal epithelium (atrophic enteropathy)

With `CCCC(CCC)C(=O)Nc1ccn([C@@H]2O[C@H](CO)[C@@H](O)C2(F)F)c(=O)n1` [LY2334737] as the molecule, how does the hepatic toxicity [5] read?
The hepatic toxicity was “unexpected hepatic toxicities were observed”.
